Test results: ChEMBL document CHEMBL1158419, “3D-QSAR study of 8-azabicyclo[3.2.1] octane analogs antagonists of cholinergic receptor” (Bioorg Med Chem Lett, 2009)

Assay: Antagonist activity at muscarinic receptor
Assay type: functional

| Structure (SMILES) | pKi |
| --- | --- |
| C[N+]1(C)[C@@H]2CC[C@H]1C[C@@H](OC(=O)CCC(C(=O)O[C@@H]1C[C@H]3CC[C@@H](C1)[N+]3(C)C)c1ccccc1)C2 (some centres not stated) | 6.5 |
| CN1[C@@H]2CC[C@H]1C[C@@H](OC(c1ccccc1)c1ccccc1)C2 [BENZTROPINE] | 0.33 |
| CN1[C@@H]2CC[C@H]1C[C@@H](OC(=O)C(CO)c1ccccc1)C2 (some centres not stated) [ATROPINE] | 9.34 |
| CN1[C@@H]2C[C@@H](OC(=O)C(c3ccccc3)C3CCCC3)C[C@H]1[C@@H]1O[C@@H]12 (some centres not stated) | 7.14 |
| C[N+]1(C)C2CCC1CC(OC(=O)C(CC(=O)O[C@H]1C[C@H]3CC[C@@H](C1)[N+]3(C)C)c1ccccc1)C2 (some centres not stated) | 7.18 |
| CCCCCCOC(=O)C(C(=O)O[C@@H]1C[C@@H]2[C@H]3O[C@H]3[C@H](C1)[N+]2(C)C)c1ccccc1 (some centres not stated) | 7.33 |
| CCOC(=O)C(C(=O)O[C@@H]1C[C@@H]2[C@H]3O[C@H]3[C@H](C1)[N+]2(C)C)(c1ccccc1)C1CCCC1 (some centres not stated) | 7.98 |
| C[S+]([O-])COC(=O)C(O[C@@H]1CC2CC[C@H](C1)[N+]2(C)C)c1ccccc1 (single isomer, unassigned) | 7.25 |
| CCCCN1C2CC[C@@H]1C[C@H](OC(c1ccc(F)cc1)c1ccc(F)cc1)C2 (single isomer, unassigned) | 2.6 |
| CN1C2CC[C@@H]1C[C@H](OC(c1ccc(F)cc1)c1ccc(F)cc1)C2 (single isomer, unassigned) | 1.06 |
| CN1[C@@H]2C[C@@H](OC(=O)[C@H](CO)c3ccccc3)C[C@H]1[C@@H]1O[C@@H]12 [SCOPOLAMINE] | 8.95 |
| C[N+]1(C)[C@@H]2C[C@@H](OC(=O)C(C(=O)OC3CCCCC3)c3ccccc3)C[C@H]1[C@@H]1O[C@@H]12 (some centres not stated) | 8.01 |
| CCOC(=O)C(C(=O)O[C@@H]1CC2[C@H]3O[C@H]3[C@H](C1)[N+]2(C)C)c1ccccc1 (single isomer, unassigned) | 8.32 |
| C=CCN1C2CC[C@@H]1C[C@H](OC(c1ccc(F)cc1)c1ccc(F)cc1)C2 (single isomer, unassigned) | 2.25 |
| COC(=O)[C@H]1[C@@H](OC(=O)c2ccccc2)C[C@@H]2CC[C@H]1N2C [COCAINE] | 4.79 |
| Fc1ccc(C(O[C@@H]2CC3CC[C@H](C2)N3Cc2ccccc2)c2ccc(F)cc2)cc1 (single isomer, unassigned) | 3.01 |
| COC(=O)C(C(=O)O[C@@H]1C[C@@H]2[C@H]3O[C@H]3[C@H](C1)[N+]2(C)C)(c1ccccc1)C1CCCC1 (some centres not stated) | 7.28 |
